# Patent US20190381086A1, “INHIBITION OF NEDDYLATION USING GLYCYL-tRNA SYNTHETASE INHIBITORS” (The Scripps Research Institute, priority 2015, published 2019)
# Key:
# OVCAR-5 = assay: NCI 60 Cell One-Dose Screen; assay type: cell-based, human; details: OVCAR-5, Ovarian Cancer; single dose 10^-5 M
# SW-620 = assay: NCI 60 Cell One-Dose Screen; assay type: cell-based, human; details: SW-620, Colon Cancer; single dose 10^-5 M
# SF-268 = assay: NCI 60 Cell One-Dose Screen; assay type: cell-based, human; details: SF-268, CNS Cancer; single dose 10^-5 M
# UO-31 = assay: NCI 60 Cell One-Dose Screen; assay type: cell-based, human; details: UO-31, Renal Cancer; single dose 10^-5 M
# SK-OV-3 [1] = assay: NCI 60 Cell One-Dose Screen; assay type: cell-based, human; details: SK-OV-3, Ovarian Cancer; single dose 10^-5 M
# SK-MEL-28 [2] = assay: NCI 60 Cell One-Dose Screen; assay type: cell-based, human; details: SK-MEL-28, Melanoma; single dose 10^-5 M
# A549/ATCC [3] = assay: NCI 60 Cell One-Dose Screen; assay type: cell-based, human; details: Non-Small Cell Lung Cancer, single dose 10^-5 M
# SR = assay: NCI 60 Cell One-Dose Screen; assay type: cell-based, human; details: Leukemia, single dose 10^-5 M
# OVCAR-3 = assay: NCI 60 Cell One-Dose Screen; assay type: cell-based, human; details: OVCAR-3, Ovarian Cancer; single dose 10^-5 M
# ACHN [4] = assay: NCI 60 Cell One-Dose Screen; assay type: cell-based, human; details: Renal Cancer, single dose 10^-5 M
# HS 578T [5] = assay: NCI 60 Cell One-Dose Screen; assay type: cell-based, human; details: Breast Cancer, single dose 10^-5 M
# CCRF-CEM = assay: NCI 60 Cell One-Dose Screen; assay type: cell-based, human; details: Leukemia, single dose 10^-5 M
# UACC-257 = assay: NCI 60 Cell One-Dose Screen; assay type: cell-based, human; details: UACC-257, Melanoma; single dose 10^-5 M
# EKVX [6] = assay: NCI 60 Cell One-Dose Screen; assay type: cell-based, human; details: Non-Small Cell Lung Cancer, single dose 10^-5 M
# DU-145 = assay type: cell-based; details: DU-145, Prostate Cancer
# NCI/ADR-RES = assay type: cell-based; details: Ovarian Cancer
# EKVX [7] = assay type: cell-based; details: Non-Small Cell Lung Cancer
# MOLT-4 = assay type: cell-based; details: MOLT-4, Leukemia
# HS 578T [8] = assay type: cell-based; details: Breast Cancer
# KM12 = assay type: cell-based; details: KM12, Colon Cancer
# COLO 205 = assay type: cell-based; details: COLO 205, Colon Cancer
# SNB-19 = assay type: cell-based; details: SNB-19, CNS Cancer
# SK-OV-3 [9] = assay type: cell-based; details: SK-OV-3, Ovarian Cancer
# ACHN [10] = assay type: cell-based; details: Renal Cancer
# BT-549 = assay type: cell-based; details: BT-549, Breast Cancer
# HOP-92 = assay type: cell-based; details: HOP-92, Non-Small Cell Lung Cancer
# A549/ATCC [11] = assay type: cell-based; details: Non-Small Cell Lung Cancer
# SF-539 = assay type: cell-based; details: SF-539, CNS Cancer
# SK-MEL-28 [12] = assay type: cell-based; details: SK-MEL-28, Melanoma
# UACC-62 = assay type: cell-based; details: UACC-62, Melanoma
# MDA-MB-435 = assay type: cell-based; details: MDA-MB-435, Melanoma
# S. aureus GlyRS = S. aureus GlyRS (UniProt Q2FY08); details: read-out: IC50 (the inhibitor concentration at which GlyRS activity is reduced by half); cited from earlier work
# [13] = Homo sapiens, read-out: LC50 (the source's name)
smiles,measurement,setting,value
"NCC(=O)NS(=O)(=O)OC[C@H]1O[C@@H](n2cnc3c(N)ncnc32)[C@H](O)[C@@H]1O [GlySA, glycylsulfamoyladenosine]",Growth inhibition count (%),OVCAR-5,0.2916%
same,Growth inhibition count (%),SW-620,3.712%
same,Growth inhibition count (%),SF-268,3.776%
same,Growth inhibition count (%),UO-31,6.084%
same,Growth inhibition count (%),SK-OV-3 [1],6.281%
same,Growth inhibition count (%),SK-MEL-28 [2],8.357%
same,Growth inhibition count (%),A549/ATCC [3],9.701%
same,Growth inhibition count (%),SR,9.926%
same,Growth inhibition count (%),OVCAR-3,10.05%
same,Growth inhibition count (%),ACHN [4],11.79%
same,Growth inhibition count (%),HS 578T [5],16.07%
same,Growth inhibition count (%),CCRF-CEM,21.68%
same,Growth inhibition count (%),UACC-257,27.43%
same,Growth inhibition count (%),EKVX [6],44.07%
same,LC50/GI50,DU-145,>144.5
same,GI50,DU-145; Homo sapiens,0.692 µM
same,GI50,NCI/ADR-RES; Homo sapiens,2.51 µM
same,CC50,NCI/ADR-RES; [13],> 100 µM
same,LC50/GI50,NCI/ADR-RES,>39.8
same,GI50,EKVX [7]; Homo sapiens,2.57 µM
same,LC50/GI50,EKVX [7],>38.9
same,GI50,MOLT-4; Homo sapiens,2.63 µM
same,CC50,MOLT-4; [13],> 100 µM
same,LC50/GI50,MOLT-4,>38.0
same,LC50/GI50,HS 578T [8],>34.7
same,GI50,HS 578T [8]; Homo sapiens,2.88 µM
same,CC50,HS 578T [8]; [13],> 100 µM
same,GI50,KM12; Homo sapiens,3.24 µM
same,LC50/GI50,KM12,>30.9
same,LC50/GI50,COLO 205,28.2
same,GI50,COLO 205; Homo sapiens,2.29 µM
same,CC50,COLO 205; [13],64.6 µM
same,GI50,SNB-19; Homo sapiens,0.38 µM
same,CC50,SNB-19; [13],6.92 µM
same,LC50/GI50,SNB-19,18.2
same,GI50,SK-OV-3 [9]; Homo sapiens,2.88 µM
same,CC50,SK-OV-3 [9]; [13],37.1 µM
same,LC50/GI50,SK-OV-3 [9],12.9
same,GI50,ACHN [10]; Homo sapiens,2.88 µM
same,CC50,ACHN [10]; [13],33.9 µM
same,LC50/GI50,ACHN [10],11.7
same,LC50/GI50,BT-549,10.7
same,GI50,BT-549; Homo sapiens,2.34 µM
same,LC50/GI50,HOP-92,9.3
same,GI50,HOP-92; Homo sapiens,2.95 µM
same,CC50,HOP-92; [13],27.5 µM
same,GI50,A549/ATCC [11]; Homo sapiens,2.34 µM
same,CC50,A549/ATCC [11]; [13],19.1 µM
same,LC50/GI50,A549/ATCC [11],8.1
same,GI50,SF-539; Homo sapiens,1.45 µM
same,CC50,SF-539; [13],8.91 µM
same,LC50/GI50,SF-539,6.2
same,GI50,SK-MEL-28 [12]; Homo sapiens,1.95 µM
same,CC50,SK-MEL-28 [12]; [13],8.91 µM
same,LC50/GI50,SK-MEL-28 [12],4.6
same,GI50,UACC-62; Homo sapiens,1.86 µM
same,LC50/GI50,UACC-62,4.2
same,GI50,MDA-MB-435; Homo sapiens,1.82 µM
same,LC50/GI50,MDA-MB-435,3.6
same,IC50,S. aureus GlyRS,~2400 µM
same,GI50,"MDA-MB-468; Homo sapiens, MDA-MB-468",0.741 µM
same,CC50,"MDA-MB-468; Homo sapiens, MDA-MB-468, read-out: LC50 (μM)",7.59 µM
same,LC50/GI50,"MDA-MB-468; MDA-MB-468, Breast Cancer",10.2
